According to ChEMBL document CHEMBL3885881, “DrugMatrix”:

Species on record: Rattus norvegicus
Assay: DrugMatrix - Regimen: Daily Repeat
Format: toxicity, organism-based, Sprague-Dawley
Parameters: regimen Daily Repeat, gender Male, age 6-8 weeks
Conditions: in vivo, iv, vehicle 100 % SALINE; for ABSOLUTE BASOPHIL / ABSOLUTE EOSINOPHIL / ABSOLUTE LYMPHOCYTE / ABSOLUTE MONOCYTE / ABSOLUTE SEGMENTED NEUTROPHIL / BASOPHIL / EOSINOPHIL / ERYTHROCYTE COUNT / HEMATOCRIT / HEMOGLOBIN / LEUKOCYTE COUNT / LYMPHOCYTE / MEAN CORPUSCULAR HEMOGLOBIN / MEAN CORPUSCULAR HEMOGLOBIN CONCENTRATION / MEAN CORPUSCULAR VOLUME / MONOCYTE / NEUTROPHIL / NUCLEATED RED BLOOD CELLS / PLATELET COUNT: tissue Blood; for ALANINE AMINOTRANSFERASE / ALBUMIN / ALKALINE PHOSPHATASE / ASPARTATE AMINOTRANSFERASE / BLOOD UREA NITROGEN / CARBON DIOXIDE / CHLORIDE / CHOLESTEROL / CREATINE PHOSPHOKINASE / CREATININE / GLUCOSE / LACTATE DEHYDROGENASE / LIPASE / PHOSPHORUS / POTASSIUM / SODIUM / TOTAL BILIRUBIN / TOTAL PROTEIN / URIC ACID: tissue Plasma
[1] = 200 mg/kg, 120 h, dose level Low, time 5 day
[2] = 800 mg/kg, 72 h, dose level High, time 3 day
[3] = 800 mg/kg, 120 h, dose level High, time 5 day

CC1(C)S[C@@H]2[C@H](NC(=O)[C@H](NC(=O)N3CCNC3=O)c3ccccc3)C(=O)N2[C@H]1C(=O)O [AZLOCILLIN] was tested, and the “ABSOLUTE BASOPHIL” value [1] was 0 CELLS/uL, the “ABSOLUTE EOSINOPHIL” value [1] was 0 CELLS/uL and the “ABSOLUTE LYMPHOCYTE” value [1] was 10606.67 CELLS/uL. The “ABSOLUTE MONOCYTE” value [1] was 46.67 CELLS/uL, the “ABSOLUTE SEGMENTED NEUTROPHIL” value [1] was 980 CELLS/uL and the BASOPHIL [1] was 0%. For the same compound, the EOSINOPHIL [1] was 0%, the “ERYTHROCYTE COUNT” value [1] was 5.98 x10E6/uL and the HEMATOCRIT [1] was 35.9%. The HEMOGLOBIN [1] was 14.17 G/DL, the “LEUKOCYTE COUNT” value [1] was 11.63 x10E3/uL and the LYMPHOCYTE [1] was 91.33%. The “MEAN CORPUSCULAR HEMOGLOBIN” value [1] was 23.7 pg, the “MEAN CORPUSCULAR HEMOGLOBIN CONCENTRATION” value [1] was 39.5 G/DL and the “MEAN CORPUSCULAR VOLUME” value [1] was 60.07 fL. For the same compound, the MONOCYTE [1] was 0.33%, the NEUTROPHIL [1] was 8.33% and the “NUCLEATED RED BLOOD CELLS” value [1] was 0.33 /100WBC. For the same compound, the “PLATELET COUNT” value [1] was 1262 x10E3/uL, the “ALANINE AMINOTRANSFERASE” value [1] was 76 u/L and the ALBUMIN [1] was 4.17 G/DL. For the same compound, the “ALKALINE PHOSPHATASE” value [1] was 302.33 u/L, the “ASPARTATE AMINOTRANSFERASE” value [1] was 91.67 u/L and the “BLOOD UREA NITROGEN” value [1] was 17.67 mg/dL. The “CARBON DIOXIDE” value [1] was 25.67 mmol/L, the CHLORIDE [1] was 101 MEQ/L and the CHOLESTEROL [1] was 73 mg/dL. The “CREATINE PHOSPHOKINASE” value [1] was 333.33 u/L, the CREATININE [1] was 0.19 mg/dL and the GLUCOSE [1] was 172.67 mg/dL. The “LACTATE DEHYDROGENASE” value [1] was 301 u/L, the LIPASE [1] was 9.33 u/L and the PHOSPHORUS [1] was 11.1 mg/dL. For the same compound, the POTASSIUM [1] was 5.74 MEQ/L, the SODIUM [1] was 144.37 MEQ/L and the “TOTAL BILIRUBIN” value [1] was 0.13 mg/dL. The “TOTAL PROTEIN” value [1] was 6.33 G/DL, the “URIC ACID” value [1] was 1.6 mg/dL and the “ABSOLUTE BASOPHIL” value [2] was 0 CELLS/uL. For the same compound, the “ABSOLUTE EOSINOPHIL” value [2] was 64.67 CELLS/uL, the “ABSOLUTE LYMPHOCYTE” value [2] was 11014.33 CELLS/uL and the “ABSOLUTE MONOCYTE” value [2] was 68.67 CELLS/uL. For the same compound, the “ABSOLUTE SEGMENTED NEUTROPHIL” value [2] was 1119 CELLS/uL, the BASOPHIL [2] was 0% and the EOSINOPHIL [2] was 0.33%. For the same compound, the “ERYTHROCYTE COUNT” value [2] was 5.5 x10E6/uL, the HEMATOCRIT [2] was 34.53% and the HEMOGLOBIN [2] was 13.63 G/DL. The “LEUKOCYTE COUNT” value [2] was 12.27 x10E3/uL, the LYMPHOCYTE [2] was 90.67% and the “MEAN CORPUSCULAR HEMOGLOBIN” value [2] was 24.87 pg. For the same compound, the “MEAN CORPUSCULAR HEMOGLOBIN CONCENTRATION” value [2] was 39.5 G/DL, the “MEAN CORPUSCULAR VOLUME” value [2] was 62.9 fL and the MONOCYTE [2] was 0.67%. For the same compound, the NEUTROPHIL [2] was 8.33%, the “NUCLEATED RED BLOOD CELLS” value [2] was 0 /100WBC and the “PLATELET COUNT” value [2] was 1200 x10E3/uL. For the same compound, the “ALANINE AMINOTRANSFERASE” value [2] was 47.33 u/L, the ALBUMIN [2] was 4.13 G/DL and the “ALKALINE PHOSPHATASE” value [2] was 350 u/L. For the same compound, the “ASPARTATE AMINOTRANSFERASE” value [2] was 79.33 u/L, the “BLOOD UREA NITROGEN” value [2] was 15.67 mg/dL and the “CARBON DIOXIDE” value [2] was 32.67 mmol/L. For the same compound, the CHLORIDE [2] was 98.33 MEQ/L, the CHOLESTEROL [2] was 83 mg/dL and the “CREATINE PHOSPHOKINASE” value [2] was 313.33 u/L. For the same compound, the CREATININE [2] was 0.15 mg/dL, the GLUCOSE [2] was 135.67 mg/dL and the “LACTATE DEHYDROGENASE” value [2] was 118 u/L. It also gave an LIPASE [2] of 9.67 u/L, a PHOSPHORUS [2] of 10.5 mg/dL and a POTASSIUM [2] of 6.4 MEQ/L. For the same compound, the SODIUM [2] was 143.1 MEQ/L, the “TOTAL BILIRUBIN” value [2] was 0.23 mg/dL and the “TOTAL PROTEIN” value [2] was 5.9 G/DL. The “URIC ACID” value [2] was 1.33 mg/dL, the “ABSOLUTE BASOPHIL” value [3] was 0 CELLS/uL and the “ABSOLUTE EOSINOPHIL” value [3] was 0 CELLS/uL. The “ABSOLUTE LYMPHOCYTE” value [3] was 11750 CELLS/uL, the “ABSOLUTE MONOCYTE” value [3] was 375 CELLS/uL and the “ABSOLUTE SEGMENTED NEUTROPHIL” value [3] was 375 CELLS/uL. For the same compound, the BASOPHIL [3] was 0%, the EOSINOPHIL [3] was 0% and the “ERYTHROCYTE COUNT” value [3] was 6.36 x10E6/uL. The HEMATOCRIT [3] was 36.8%, the HEMOGLOBIN [3] was 14.2 G/DL and the “LEUKOCYTE COUNT” value [3] was 12.5 x10E3/uL. The LYMPHOCYTE [3] was 94%, the “MEAN CORPUSCULAR HEMOGLOBIN” value [3] was 22.3 pg and the “MEAN CORPUSCULAR HEMOGLOBIN CONCENTRATION” value [3] was 38.6 G/DL. The “MEAN CORPUSCULAR VOLUME” value [3] was 57.9 fL, the MONOCYTE [3] was 3% and the NEUTROPHIL [3] was 3%. The “NUCLEATED RED BLOOD CELLS” value [3] was 0 /100WBC, the “PLATELET COUNT” value [3] was 1139 x10E3/uL and the “ALANINE AMINOTRANSFERASE” value [3] was 42 u/L. For the same compound, the ALBUMIN [3] was 3.7 G/DL, the “ALKALINE PHOSPHATASE” value [3] was 225 u/L and the “ASPARTATE AMINOTRANSFERASE” value [3] was 68 u/L. For the same compound, the “BLOOD UREA NITROGEN” value [3] was 22 mg/dL, the “CARBON DIOXIDE” value [3] was 25 mmol/L and the CHLORIDE [3] was 102 MEQ/L. For the same compound, the CHOLESTEROL [3] was 82 mg/dL, the “CREATINE PHOSPHOKINASE” value [3] was 168 u/L and the CREATININE [3] was 0.27 mg/dL. The GLUCOSE [3] was 198 mg/dL, the “LACTATE DEHYDROGENASE” value [3] was 104 u/L and the LIPASE [3] was 9 u/L. It also gave a PHOSPHORUS [3] of 10.1 mg/dL, a POTASSIUM [3] of 5.6 MEQ/L and an SODIUM [3] of 144.4 MEQ/L. For the same compound, the “TOTAL BILIRUBIN” value [3] was 0.2 mg/dL, the “TOTAL PROTEIN” value [3] was 6.1 G/DL and the “URIC ACID” value [3] was 2.2 mg/dL.
